Experiments:
[1] = test system: AdiPS iPS cells and H1, H9EOS and H9 ES cells; experiment: Resetting efficiency by SUSD2 staining and flow cytometry; assay type: cell-based, human; conditions: all cell lines; miR-98-5p mimic Day 1 or BMP4 Day 2; VPA-containing cRM-1; Day 14 (FIG. 16)
Protocol: AccuMax was added to the cells on Day 14 of the resetting protocol of FIG. 2, and the mixture was incubated at 37° C. for about 10 to 15 minutes, after which the cells were detached. They were then suspended in 1% BSA-PBS to prevent nonspecific antibody binding, and after 30 minutes of blocking on ice, SUSD2 antibody was mixed with the cell suspension to a final concentration of 1:500, reaction was conducted for 30 minutes on ice and the mixture was rinsed with PBS, after which measurement was performed with a flow cytometer.
FIG. 16 is a graph showing resetting efficiency in culturing with VPA-containing cRM-1, using AdiPS iPS cells and H1, H9EOS and H9 ES cells. With mimic_ctrl and mimic-98-5p, cells were transfected with control mimic or miR-98-5p mimic on Day 1, culturing was carried out in VPA-containing cRM-1 from Day 2 to Day 4, and culturing was in cRM-2 from Day 5 to Day 14. For BMP-4, the BMP4 was added to VPA-containing cRM-1 on Day 2 without transfection of cells with control mimic or miR-98-5p mimic, for culturing up to Day 4, and then culturing was in cRM-2 from Day 5 to Day 14. […]

H9EOS cells = experiment: Chemical resetting of primed H9EOS cells to naive state; EGFP-positive cells quantified on Day 14 by flow cytometry; assay type: cell-based, human; conditions: for resetting efficiency with respect to chemical: VPA-free cRM-1, miR-98-5p transfected Day 1 combined with BMP2 or BMP4 added Day 2 (FIG. 12); for BMP activation judged from resetting efficiency standardized to Chemical only: 1, 5 or 10 μM added to VPA-containing cRM-1 on Days 3-5 (FIG. 10, 11)
Protocol: After collecting H9EOS and H9EOS (NK) cells and measuring the cell count in the same manner as for subculturing, they were diluted with AK02N medium containing Y-27632 (Nacalai Tesque, 08945-84) and iMatrix-511 silk (Nippi, 387-10131) (culture medium for primed pluripotent stem cells) and seeded on a multiwell plate (modified method of G. Guo, et. al., 144, 2748-2763 (2017)). The medium was exchanged with AK02N on Day 1, with culturing in cRM-1 (NDiff 227 (Takara, Y40002) containing 1 μM PD0325901, 10 ng/ml hLIF, 1 mM VPA) or VPA-free cRM-1 (culture medium for naive pluripotent stem cells) from Day 2 to Day 5, followed by culturing up to Day 14 in cRM-2 (NDiff 227 containing 1 μM PD0325901, 10 ng/ml hLIF, 2 μM Go6983, 2 μM XAV939). The resetting efficiency was quantified by counting the cell count using a flow cytometer, with the EGFP-expressing cells as naive cells.
The mimic used for each miRNA was mirVana miRNA Mimic (Thermo Fisher Scientific). A control, mirVana miRNA Mimic, Negative Control (Thermo Fisher Scientific, 4464058) was also used. Introduction was carried out on either Day 1, 2, 3 or 4, or a combination thereof, during the normal course of resetting, using Lipofectamine RNAiMAX Transfection Reagent (Thermo Fisher Scientific, 13778075) as the miRNA mimic. Culturing was then carried out according to common resetting protocol, and the EGFP-positive cells were quantified on Day 14 using a flow cytometer.
On Day 1 of the resetting protocol shown in FIG. 2, the 22 plasmids were used, either alone or as a mixture of the 22 plasmids minus one each, for transfection together with the transposase-expressing plasmid (pCAG-PBase), using Lipofectamine Stem Transfection Reagent (Thermo Fisher Scientific, STEM00003). Doxycycline was added at a final concentration of 250 ng/ml to cRM-1 on Days 2 to 5 to induce gene expression. Culturing was then carried out according to common resetting protocol, and the EGFP-positive cells were quantified on Day 14 using a flow cytometer.
[…] 2. Culturing was then carried out according to common resetting protocol, and the EGFP-positive cells were quantified on Day 14 using a flow cytometer.
To cRM-1 containing or not containing VPA there was added 10-100 ng/mL of rhBMP4 (Reprocell, 314-BP-010), on one or more of Days 1 to 5 of the resetting protocol of FIG. 2. Culturing was then carried out according to common resetting protocol, and the EGFP-positive cells were quantified on Day 14 using a flow cytometer.
On Day 1 of the resetting protocol of FIG. 2, one siRNA from among NR6A1, TRIM71, LRIG1, DNMT3B, IGF2BP1, CACHD1, PCDH8, L1TD1, SFRP1, VASH2, LIN28B, USP44, MAPK10, DICER1, DPH3, PRTG, MAPK6, HMGA2, LINC01356 (n491112) and LINC01356 (n549768) (all purchased from Horizon Discovery/Dharmacon) was introduced using Lipofectamine RNAiMAX Transfection Reagent (Thermo Fisher Scientific, 13778075). Culturing was then carried out according to common resetting protocol, and the EGFP-positive cells were quantified on Day 14 using a flow cytometer.

Row | Molecule | percentage of SUSD2-positive cells [1] | resetting efficiency with respect to chemical (H9EOS cells; H9EOS) | BMP activation judged from resetting efficiency standardized to Chemical only (H9EOS cells; H9EOS) | also measured
1 | miR-98-5p: let-7 family miRNA mimic (mirVana), sequence UGAGGUAGUAAGUUGUAUUGUU, SEQ ID 1 (listed as RNA, chemistry not given here; listed as Homo sapiens) | tended to increase | increase | – | resetting efficiency (H9EOS cells; H9EOS, miR-98-5p transfected Day 1 in addition to BMP2 or BMP4 on Day 2, VPA-containing cRM-1 (FIG. 12)): tended to further increase; resetting efficiency (EGFP-positive cells) (H9EOS cells; H9EOS, miRNA mimic transfected on Day 1, cRM-1 containing VPA, Day 14 (FIG. 3, FIG. 4)): significantly high
2 | Brc1ccc(CSc2nc3ccccc3o2)cc1 [SB-4] | – | – | capable of activating BMP | –
3 | BMP4: recombinant human bone morphogenetic protein BMP4 (Reprocell, 314-BP-010) | tended to increase | increase | – | resetting efficiency (GFP-positive cells) (H9EOS cells; H9EOS transfected with miR-98-5p Day 1, BMP4 added earlier (Day 0/1) with Wnt inhibitor (IWP mix, 1 μM) simultaneously or before, VPA-containing cRM-1 (FIG. 17)): maintaining the resetting efficiency; resetting efficiency compared to chemical (H9EOS cells; H9EOS, BMP added to medium on Day 2, VPA-containing cRM-1 (FIG. 12)): highly significant increase; resetting efficiency (H9EOS cells; H9EOS, rhBMP4 added on Day 0 (FIG. 12, 13)): lower
4 | O=C(/C=C/c1ccc(O)cc1)c1ccc(O)cc1O [isoliquiritigenin] | – | – | capable of activating BMP | –
